Data reported in patent US12668589B2, “N-formamidopyrazoline derivative as P2X3 receptor antagonist and use thereof” (HANGZHOU WESTAN PHARMACEUTICAL TECHNOLOGY CO., LTD, priority 2020, dated 2026).

Legend:
human PAR-1 = target: T1, human PAR-1 (Homo sapiens, UniProt P25116); test: Inhibitory activity against PAR-1, calcium ion flux fluorescence method (FLIPR); format: cell-based; conditions: HEK293/Ga15 cells expressing human PAR-1, TFLLR-NH2 10 μM, starting concentration 30 μM
T1 construct: host or cells: HEK293/Ga15 recombinant cell line
T1 sequence (P25116 22-425): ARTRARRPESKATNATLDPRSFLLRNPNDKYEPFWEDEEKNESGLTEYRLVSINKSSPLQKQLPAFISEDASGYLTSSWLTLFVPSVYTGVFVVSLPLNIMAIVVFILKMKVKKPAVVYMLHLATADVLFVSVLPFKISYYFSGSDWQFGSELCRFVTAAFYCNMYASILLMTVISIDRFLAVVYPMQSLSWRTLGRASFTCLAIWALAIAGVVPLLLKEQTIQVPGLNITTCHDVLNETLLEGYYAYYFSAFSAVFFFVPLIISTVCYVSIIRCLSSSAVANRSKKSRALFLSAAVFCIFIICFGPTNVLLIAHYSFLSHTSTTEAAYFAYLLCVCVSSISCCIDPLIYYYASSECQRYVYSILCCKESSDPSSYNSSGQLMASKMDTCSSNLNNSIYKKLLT
Experimental: The inhibitory activity of the title compounds against human PAR-1 was determined by a calcium ion flux fluorescence method (an FLIPR method). The method thereof was reported in the literature of Zhong et al. [Zhong et al. J Biomol Struct Dyn, 2017, 35(13):2853].
An HEK293/Ga15 recombinant cell line (HD Biosciences, Shanghai, China) stably expressing human PAR-1 was cultured in a DMEM (Thermo Fisher Scientific, Shanghai) culture solution (containing 10% calf serum, 800 μg/mL G418). Incubator conditions were 37° C. and an air humidity with 5% CO2.
On the first day, 20 μL per well of PAR-1 cells at a concentration of 4E+5 cells/mL were seeded in a 384-well analysis plate (Corning 3712). […] On the second day, a culture solution in each well was poured off. Then, 20 μL of 1×loading dye (2 μM Fluo-8 AM in 1×HBSS with 20 mM HEPES, 1 mM Probenecid, 0.025% Pluronic F-127 assay buffer) was added in each well. The cell analysis plate was cultured for 1 hour at a room temperature.
The compounds were dissolved into 100% DMSO to prepare a 10 mM stock solution, which was stored at −20° C. On the day of use, the compound stock solution was thawed at a room temperature. Each compound was subjected to 1:3 serial dilution at 11 concentration points with a DMEM culture solution with a starting concentration of 30 μM. Each compound was subjected to double dilution for testing. A positive control compound was diluted in the same way with SCH79797 with a starting concentration of 30 μM.
The cell analysis plate was placed in a FLIPR instrument (Molecular Device) and 10 μL of compounds (3× of a final concentration) in a compound plate was added to corresponding wells of the cell analysis plate. After 10 minutes, 10 μL of TFLLR-NH2 (TFA) (a final concentration of 10 μM) was added to each well to stimulate generation of intracellular calcium flux signals. Ca^++-dependent fluorescence signals were continuously monitored at excitation wavelengths of 470/495 nm and emission wavelengths of 515/575 nm to analyze the inhibitory activity of the compounds.
Data were collected and analyzed by using an FLIPR program. The inhibitory (or agonistic) activity of the compounds at each concentration was assessed by fluorescence peaks. IC50 values of the compounds were calculated by using EXCEL and PRISM programs.

human P2X3 = target: T2, human P2X3 (Homo sapiens, UniProt P56373); test: cell-based
T2 sequence (P56373 1-397): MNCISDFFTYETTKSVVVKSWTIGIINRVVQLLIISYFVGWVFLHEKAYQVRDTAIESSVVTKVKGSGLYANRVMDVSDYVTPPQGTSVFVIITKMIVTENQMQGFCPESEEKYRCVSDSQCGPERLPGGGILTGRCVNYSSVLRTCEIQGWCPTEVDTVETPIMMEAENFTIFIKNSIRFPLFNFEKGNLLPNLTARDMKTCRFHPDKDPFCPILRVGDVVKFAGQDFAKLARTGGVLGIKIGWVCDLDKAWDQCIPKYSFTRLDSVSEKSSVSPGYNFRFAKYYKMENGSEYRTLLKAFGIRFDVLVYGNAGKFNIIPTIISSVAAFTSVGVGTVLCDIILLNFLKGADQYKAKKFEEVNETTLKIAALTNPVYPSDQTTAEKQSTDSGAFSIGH
Experimental: An HEK293 cell line was used as cells. HEK293 cells were placed in a 37° C. incubator with 5% CO2 for culture. Passage was conducted when the cells grew to a density of 80% to 90%. A culture medium in an original 60 mm culture dish was discarded. After the cells were washed 3 times with a sterilized PBS solution, and the solution was blotted up. […] After the trypsin was blotted up, 3 mL of a cell culture medium was added to resuspend the cells. 0.5 mL of a resuspension solution was taken to be added into a new culture dish, and an total culture solution was supplemented to 5 mL. The culture dish was gently shaken to distribute the cells evenly, and then placed in a 37° C. incubator with 5% CO2 for culture.
First, treated slides were spread in a small 35 mm culture dish. 100 μL of resuspended cells were added, and then a total amount of a culture medium was supplemented to 2 mL. Target genes were transferred into the HEK293 cell line by adopting a calcium transfection method. Small dishes to be transfected were subjected to medium change 1 hour before transfection. 2 mL of a fresh cell culture solution was added. A 1.5 mL EP tube was taken, 200 μL of a 0.25 M CaCl2) solution was added, and 3 μg of plasmids to be transfected were added, and even mixing was conducted to form a DNA-CaCl2 solution. […] A pipette tip was used for mixing while adding. After adding all, gentle blowing and beating were conducted 8 to 10 times. After still standing for 5 minutes, they were added into small dishes. The small dishes were shaken slightly to mix the solution evenly, and the placed in a cell incubator. Culture mediums were replaced after 8 to 10 hours. Electrophysiological experiments were performed 24 to 48 hours after transfection.
Electrophysiological recording electrodes were obtained by two-step pulling by using an electrode puller (PP-10, Narishige). After an internal solution is injected into the electrodes, a water inlet resistance is 3 to 5 MΩ. During the experiment, a high potassium salt internal solution containing nystatin (K2SO4 of 75 mM, KCl of 120 mM, MgSO4 of 5 mM, HEPES of 10 mM, adjusting pH to 7.2 with Tris-base, and used after filtration) was used as an electrode internal solution. After the cells were sealed by the electrodes, there was no need to further break cell membranes in a sucked manner, but the cell membranes were bored through the perforation of the nystatin to the cell membranes, to form a hole channel. […] A clamping voltage was −60 mV, a sampling frequency was 10 kHz, and filtering was conducted at 2 kHz.
A working concentration of a P2X3 receptor agonist ATP was 1 μM, and an interval time between two times of ATP administrations was 10 minutes.

| IC50 (human PAR-1) [nM] | IC50 (human P2X3) [nM] | SMILES |
| --- | --- | --- |
| > 30000 | – | Cc1ccc(C2=NN(C(=O)N[C@H](C)c3ccc(C(F)(F)F)nc3)C[C@@H]2N2CCOCC2=O)cc1 [Compound 1, (S)-4-(3-oxomorpholin-4-yl)-3-(4-methylphenyl)-N-((R)-1-(6-(trifluoromethyl)pyridin-3-yl)ethyl)-4,5-dihydro-1H-pyrazol-1-carboxamide] |
| > 30000 | – | Cc1ccc(C2=NN(C(=O)N[C@H](C)c3ccc(C(F)(F)F)cc3)C[C@@H]2N2CCOCC2=O)cc1 [Compound 20] |
| – | 389 | Cc1ccc(C2=NN(C(=O)N[C@H](C)c3cnc(C)cn3)C[C@@H]2N2CCOC2=O)cc1 [Compound 27] |
| – | 257 | Cc1ccc(C2=NN(C(=O)N[C@H](C)c3cnc(C)cn3)C[C@H]2N2CCOC2=O)cc1 [Compound 27a] |
| – | 218 | Cc1cnc([C@@H](C)NC(=O)N2C[C@H](N3CCCC3=O)C(c3ccc(F)cc3)=N2)cn1 [Compound 28, (S)-4-(2-oxopyrrolidin-1-yl)-3-(4-fluorophenyl)-N-((R)-1-(5-methylpyrazin-2-yl)ethyl)-4,5-dihydro-1H-pyrazol-1-carboxamide] |
| – | 165 | Cc1cnc([C@@H](C)NC(=O)N2C[C@@H](N3CCCC3=O)C(c3ccc(F)cc3)=N2)cn1 [Compound 28a, (R)-4-(2-oxopyrrolidin-1-yl)-3-(4-fluorophenyl)-N-((R)-1-(5-methylpyrazin-2-yl)ethyl)-4,5-dihydro-1H-pyrazol-1-carboxamide] |
| – | 152 | COc1ccc([C@@H](C)NC(=O)N2C[C@H](N3CCOC3=O)C(c3ccc(Cl)cc3)=N2)nn1 [Compound 29, (S)-4-(2-oxooxazolidin-3-yl)-3-(4-chlorophenyl)-N-((R)-1-(6-(methoxy)pyridazin-3-yl)ethyl)-4,5-dihydro-1H-pyrazol-1-carboxamide] |
| – | 105 | COc1ccc([C@@H](C)NC(=O)N2C[C@@H](N3CCOC3=O)C(c3ccc(Cl)cc3)=N2)nn1 [Compound 29a, (R)-4-(2-oxooxazolidin-3-yl)-3-(4-chlorophenyl)-N-((R)-1-(6-(methoxy)pyridazin-3-yl)ethyl)-4,5-dihydro-1H-pyrazol-1-carboxamide] |
| – | 127 | Cc1ccc(C2=NN(C(=O)N[C@H](C)c3cnc(C(F)(F)F)nc3)C[C@@H]2N2CCCC2=O)cc1 [Compound 32, (S)-4-(2-oxopyrrolidin-1-yl)-3-(4-methylphenyl)-N-((R)-1-(2-(trifluoromethyl)pyrimidin-5-yl)ethyl)-4,5-dihydro-1H-pyrazol-1-carboxamide] |
| – | 254 | C[C@@H](NC(=O)N1C[C@H](N2CCOCC2=O)C(c2ccc(F)cc2)=N1)c1cnc(C(F)(F)F)nc1 [Compound 33, (S)-4-(3-oxomorpholin-4-yl)-3-(4-fluorophenyl)-N-((R)-1-(2-(trifluoromethyl)pyrimidin-5-yl)ethyl)-4,5-dihydro-1H-pyrazol-1-carboxamide] |
| – | 365 | C[C@@H](NC(=O)N1C[C@@H](N2CCOCC2=O)C(c2ccc(F)cc2)=N1)c1cnc(C(F)(F)F)nc1 [Compound 33a, (R)-4-(3-oxomorpholin-4-yl)-3-(4-fluorophenyl)-N-((R)-1-(2-(trifluoromethyl)pyrimidin-5-yl)ethyl)-4,5-dihydro-1H-pyrazol-1-carboxamide] |
| – | 169 | CC(=O)N(C)[C@H]1CN(C(=O)N[C@H](C)c2cnc(C(F)(F)F)nc2)N=C1c1ccc(C)cc1 [Compound 34, (S)-4-(N-methylacetamido)-3-(4-methylphenyl)-N-((R)-1-(2-(trifluoromethyl)pyrimidin-5-yl)ethyl)-4,5-dihydro-1H-pyrazol-1-carboxamide] |
| – | 231 | CC(=O)N(C)[C@@H]1CN(C(=O)N[C@H](C)c2cnc(C(F)(F)F)nc2)N=C1c1ccc(C)cc1 [Compound 34a, (R)-4-(N-methylacetamido)-3-(4-methylphenyl)-N-((R)-1-(2-(trifluoromethyl)pyrimidin-5-yl)ethyl)-4,5-dihydro-1H-pyrazol-1-carboxamide] |
| – | 215 | C[C@@H](NC(=O)N1C[C@H](N2CCOCC2=O)C(c2ccc(Cl)cc2)=N1)c1cnc(C(F)(F)F)nc1 [Compound 35, (S)-4-(3-oxomorpholin-4-yl)-3-(4-chlorophenyl)-N-((R)-1-(2-(trifluoromethyl)pyrimidin-5-yl)ethyl)-4,5-dihydro-1H-pyrazol-1-carboxamide] |
| – | 451 | C[C@@H](NC(=O)N1C[C@@H](N2CCOCC2=O)C(c2ccc(Cl)cc2)=N1)c1cnc(C(F)(F)F)nc1 [Compound 35a, (R)-4-(3-oxomorpholin-4-yl)-3-(4-chlorophenyl)-N-((R)-1-(2-(trifluoromethyl)pyrimidin-5-yl)ethyl)-4,5-dihydro-1H-pyrazol-1-carboxamide] |
| – | 283 | COc1ccc(C2=NN(C(=O)N[C@H](C)c3cnc(C(F)(F)F)nc3)C[C@@H]2N2CCOCC2=O)cc1 [Compound 36, (S)-4-(3-oxomorpholin-4-yl)-3-(4-methoxyphenyl)-N-((R)-1-(2-(trifluoromethyl)pyrimidin-5-yl)ethyl)-4,5-dihydro-1H-pyrazol-1-carboxamide] |
| – | 422 | COc1ccc(C2=NN(C(=O)N[C@H](C)c3cnc(C(F)(F)F)nc3)C[C@H]2N2CCOCC2=O)cc1 [Compound 36a, (R)-4-(3-oxomorpholin-4-yl)-3-(4-methoxyphenyl)-N-((R)-1-(2-(trifluoromethyl)pyrimidin-5-yl)ethyl)-4,5-dihydro-1H-pyrazol-1-carboxamide] |
| – | 3730 | CC(=O)N1CCN([C@H]2CN(C(=O)N[C@H](C)c3cnc(C(F)(F)F)nc3)N=C2c2ccc(C)cc2)CC1 [Compound 37, (S)-4-(4-acetylpiperazin-1-yl)-3-(4-methylphenyl)-N-((R)-1-(2-(trifluoromethyl)pyrimidin-5-yl)ethyl)-4,5-dihydro-1H-pyrazol-1-carboxamide] |
| – | 2670 | Cc1ccc(C2=NN(C(=O)N[C@H](C)c3cnc(C(F)(F)F)nc3)C[C@@H]2N2CCN(C)CC2)cc1 [Compound 38] |
| – | 6100 | Cc1ccc(C2=NN(C(=O)N[C@H](C)c3cnc(C(F)(F)F)nc3)C[C@@H]2N2CCOCC2)cc1 [Compound 39, (S)-4-(morpholin-4-yl)-3-(4-methylphenyl)-N-((R)-1-(2-(trifluoromethyl)pyrimidin-5-yl)ethyl)-4,5-dihydro-1H-pyrazol-1-carboxamide] |
| – | 4910 | Cc1ccc(C2=NN(C(=O)N[C@H](C)c3cnc(C(F)(F)F)nc3)C[C@@H]2n2cccn2)cc1 [Compound 42] |
| – | 331 | Cc1ncc([C@@H](C)NC(=O)N2C[C@H](N3CCOC3=O)C(c3ccc(Cl)cc3)=N2)cn1 [Compound 43, (S)-4-(2-oxooxazolidin-3-yl)-3-(4-chlorophenyl)-N-((R)-1-(2-methylpyrimidin-5-yl)ethyl)-4,5-dihydro-1H-pyrazol-1-carboxamide] |
| – | 233 | C[C@@H](NC(=O)N1C[C@H](N2CCCC2=O)C(c2ccc(F)cc2)=N1)c1cnc(Cl)nc1 [Compound 44, (S)-4-(2-oxopyrrolidin-1-yl)-3-(4-fluorophenyl)-N-((R)-1-(2-chloropyrimidin-5-yl)ethyl)-4,5-dihydro-1 H-pyrazol-1-carboxamide] |
| – | 421 | C[C@@H](NC(=O)N1C[C@@H](N2CCCC2=O)C(c2ccc(F)cc2)=N1)c1cnc(Cl)nc1 [Compound 44a, (R)-4-(2-oxopyrrolidin-1-yl)-3-(4-fluorophenyl)-N-((R)-1-(2-chloropyrimidin-5-yl)ethyl)-4,5-dihydro-1H-pyrazol-1-carboxamide] |
